{
  "source": "paper PMC7470779",
  "about": "(Acta Pharmacologica Sinica, 2019)",
  "key": {"[1]": {"target": "T1, human OAT1 (Homo sapiens, UniProt Q4U2R8)", "T1 sequence (Q4U2R8 1-550 isoform Q4U2R8-2)": "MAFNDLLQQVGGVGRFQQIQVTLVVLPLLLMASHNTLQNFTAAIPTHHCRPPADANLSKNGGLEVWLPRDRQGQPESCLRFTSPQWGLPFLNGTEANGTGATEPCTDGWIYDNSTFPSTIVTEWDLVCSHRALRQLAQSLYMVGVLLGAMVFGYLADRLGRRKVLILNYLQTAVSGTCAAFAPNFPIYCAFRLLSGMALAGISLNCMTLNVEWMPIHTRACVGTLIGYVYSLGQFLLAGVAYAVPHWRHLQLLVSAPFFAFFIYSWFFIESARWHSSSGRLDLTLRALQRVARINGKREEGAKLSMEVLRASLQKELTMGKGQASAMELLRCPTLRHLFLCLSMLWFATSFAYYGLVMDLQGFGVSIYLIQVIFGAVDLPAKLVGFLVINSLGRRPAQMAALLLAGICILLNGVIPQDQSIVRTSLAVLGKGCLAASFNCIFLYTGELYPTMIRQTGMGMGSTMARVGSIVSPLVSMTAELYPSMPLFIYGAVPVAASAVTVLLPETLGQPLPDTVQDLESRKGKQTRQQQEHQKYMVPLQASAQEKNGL", "assay": "Inhibition of 6-CF uptake in hOAT1-HEK293 cells", "format": "cell-based"}, "[2]": {"target": "T2, human OAT3 (Homo sapiens, UniProt Q8TCC7)", "T2 sequence (Q8TCC7 1-542)": "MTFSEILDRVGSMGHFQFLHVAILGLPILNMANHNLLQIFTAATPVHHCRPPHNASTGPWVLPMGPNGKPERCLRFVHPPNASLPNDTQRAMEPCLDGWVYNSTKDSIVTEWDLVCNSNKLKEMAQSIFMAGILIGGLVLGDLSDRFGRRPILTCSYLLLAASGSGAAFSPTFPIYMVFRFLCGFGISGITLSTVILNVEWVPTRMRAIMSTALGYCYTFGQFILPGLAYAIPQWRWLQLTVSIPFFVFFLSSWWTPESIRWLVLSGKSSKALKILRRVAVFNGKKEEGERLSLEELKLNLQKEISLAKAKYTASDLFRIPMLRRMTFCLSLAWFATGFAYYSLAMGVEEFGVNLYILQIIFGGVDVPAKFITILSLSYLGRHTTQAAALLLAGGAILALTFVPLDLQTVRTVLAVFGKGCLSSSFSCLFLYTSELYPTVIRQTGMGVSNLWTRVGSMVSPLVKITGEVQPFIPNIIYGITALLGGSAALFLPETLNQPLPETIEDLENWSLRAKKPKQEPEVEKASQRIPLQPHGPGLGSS", "assay": "Inhibition of 6-CF uptake in hOAT3-HEK293 cells", "format": "cell-based"}, "[3]": {"target": "T1, human OAT1", "assay": "Acyclovir uptake in hOAT1-HEK293 cells", "format": "cell-based"}, "[4]": {"target": "T2, human OAT3", "assay": "Acyclovir uptake in hOAT3-HEK293 cells", "format": "cell-based"}, "[5]": {"target": "T3, human transporter MRP2 (Homo sapiens, UniProt Q92887)", "assay": "Transcellular transport of acyclovir in MRP2-MDCK cells", "format": "in vitro ADME", "conditions": "acyclovir 10 μmol/L, TER 10 μmol/L, MK571 20 μmol/L"}, "[6]": {"target": "T3, human transporter MRP2", "assay": "Accumulation of acyclovir in MRP2-MDCK cells", "format": "cell-based"}, "[7]": {"target": "T1, human OAT1", "assay": "TER cellular uptake in hOAT1-HEK293 cells", "format": "in vitro ADME", "conditions": "TER 20 μmol/L, 20 min, with or without probenecid 200 μmol/L"}, "[8]": {"target": "T2, human OAT3", "assay": "TER cellular uptake in hOAT3-HEK293 cells", "format": "in vitro ADME", "conditions": "TER 20 μmol/L, 20 min, with or without probenecid 200 μmol/L"}, "[9]": {"conditions": "cited from earlier work"}, "[10]": {"assay": "in vivo", "conditions": "Sprague-Dawley, rat, iv, 30 mg/kg, AUC0-∞"}, "[11]": {"assay": "Cumulative urinary excretion of acyclovir in rats", "conditions": "acyclovir alone 30 mg/kg iv"}, "[12]": {"conditions": "Sprague-Dawley, rat, plasma, intraperitoneal"}},
  "data": [
    {"smiles": "Cc1oncc1C(=O)Nc1ccc(C(F)(F)F)cc1", "note": "[LEF, leflunomide]", "values": [
      {"measurement": "inhibitory effect on OAT1 (6-CF uptake)", "setting": "[1]; hOAT1-HEK293 cells, LEF 1–100 μmol/L", "value": "no significant inhibitory effect"},
      {"measurement": "IC50", "setting": "[2]", "value": 4.1, "unit": "µM"},
      {"measurement": "effect on OAT1-mediated acyclovir transport (uptake)", "setting": "[3]", "value": "only inhibited OAT3-mediated acyclovir transport"},
      {"measurement": "effect on OAT3-mediated acyclovir transport (uptake)", "setting": "[4]", "value": "inhibited"}
    ]},
    {"smiles": "CN(C)C(=O)CCSC(SCCC(=O)O)c1cccc(/C=C/c2ccc3ccc(Cl)cc3n2)c1", "note": "(centres unmarked) [MK571]", "values": [
      {"measurement": "ER value of acyclovir reduced to, in the presence of inhibitor", "setting": "[5]", "value": 1.46},
      {"measurement": "effect on the plasma concentration and plasma clearance of acyclovir", "setting": "rats, coadministration", "value": "no effect"}
    ]},
    {"smiles": "C/C(O)=C(\\C#N)C(=O)Nc1ccc(C(F)(F)F)cc1", "note": "[TER, teriflunomide]", "values": [
      {"measurement": "IC50", "setting": "[6]", "value": 4.91, "unit": "µM"},
      {"measurement": "ER value of acyclovir reduced to, in the presence of inhibitor", "setting": "[5]", "value": 1.46},
      {"measurement": "IC50", "setting": "[1]", "value": 3.39, "unit": "µM"},
      {"measurement": "IC50", "setting": "[2]", "value": 0.87, "unit": "µM"},
      {"measurement": "effect on OAT1-mediated acyclovir transport (uptake)", "setting": "[3]", "value": "significantly inhibited"},
      {"measurement": "effect on OAT3-mediated acyclovir transport (uptake)", "setting": "[4]", "value": "significantly inhibited"},
      {"measurement": "substrate of OAT1", "setting": "[7]", "value": "not a substrate"},
      {"measurement": "substrate of OAT3", "setting": "[8]", "value": "not a substrate"},
      {"measurement": "mean plasma concentration of TER", "setting": "[12]", "value": "25900 to 37800", "unit": "ng/mL"},
      {"measurement": "time at which peak plasma concentration of TER was reached", "setting": "[12]", "value": 2, "unit": "h"},
      {"measurement": "half-life of TER in the plasma", "setting": "[9]", "value": "approximately two weeks"}
    ]},
    {"smiles": "Nc1nc2c(ncn2COCCO)c(=O)[nH]1", "note": "[acyclovir]", "values": [
      {"measurement": "AUC(0-inf)", "setting": "[10]", "value": "30600 ± 4530", "unit": "ng·h/mL"},
      {"measurement": "AUC(0-inf)", "setting": "[10]; rats, acyclovir 30 mg/kg iv, acyclovir alone", "value": "25800 ± 3020", "unit": "ng·h/mL"},
      {"measurement": "24-h cumulative urinary excretion of acyclovir (% of the dose recovered)", "setting": "[11]", "value": 78.4, "unit": "%"}
    ]}
  ]
}
